Experimental data as given in the NIST ThermoML archive (doi:10.1016/j.jct.2011.09.011).
± gives the expanded uncertainty stated by the source.

Assay: excess molar enthalpy (molar enthalpy of mixing); xn = mol fraction of the nth substance listed
Conditions: 101 kPa, Liquid, Parr 1455 solution calorimeter

Structure (SMILES): CCCCCCCCCO [nonan-1-ol] + CC#N
- excess molar enthalpy (298.15 K, x1 = 0.0899): 0.254 ± 0.0108 kcal/mol
- excess molar enthalpy (298.15 K, x1 = 0.1141): 0.303 ± 0.0127 kcal/mol
- excess molar enthalpy (298.15 K, x1 = 0.1501): 0.365 ± 0.0151 kcal/mol
- excess molar enthalpy (298.15 K, x1 = 0.1975): 0.433 ± 0.0179 kcal/mol
- excess molar enthalpy (298.15 K, x1 = 0.2673): 0.515 ± 0.0213 kcal/mol
- excess molar enthalpy (298.15 K, x1 = 0.3318): 0.573 ± 0.0237 kcal/mol
- excess molar enthalpy (298.15 K, x1 = 0.4217): 0.626 ± 0.0263 kcal/mol
- excess molar enthalpy (298.15 K, x1 = 0.443): 0.632 ± 0.0263 kcal/mol
- excess molar enthalpy (298.15 K, x1 = 0.4659): 0.636 ± 0.0263 kcal/mol
- excess molar enthalpy (298.15 K, x1 = 0.4906): 0.639 ± 0.0263 kcal/mol
- excess molar enthalpy (298.15 K, x1 = 0.5175): 0.637 ± 0.0263 kcal/mol
- excess molar enthalpy (298.15 K, x1 = 0.5468): 0.631 ± 0.0263 kcal/mol
- excess molar enthalpy (298.15 K, x1 = 0.5787): 0.619 ± 0.0263 kcal/mol
- excess molar enthalpy (298.15 K, x1 = 0.6138): 0.601 ± 0.0239 kcal/mol
- excess molar enthalpy (298.15 K, x1 = 0.6524): 0.573 ± 0.0234 kcal/mol
- excess molar enthalpy (298.15 K, x1 = 0.695): 0.534 ± 0.0217 kcal/mol
- excess molar enthalpy (298.15 K, x1 = 0.7425): 0.482 ± 0.0196 kcal/mol
- excess molar enthalpy (298.15 K, x1 = 0.7955): 0.414 ± 0.017 kcal/mol
- excess molar enthalpy (298.15 K, x1 = 0.8552): 0.323 ± 0.0134 kcal/mol
- excess molar enthalpy (298.15 K, x1 = 0.9228): 0.197 ± 0.00837 kcal/mol
- excess molar enthalpy (303.15 K, x1 = 0.0899): 0.297 ± 0.0124 kcal/mol
- excess molar enthalpy (303.15 K, x1 = 0.1141): 0.35 ± 0.0143 kcal/mol
- excess molar enthalpy (303.15 K, x1 = 0.1501): 0.42 ± 0.0172 kcal/mol
- excess molar enthalpy (303.15 K, x1 = 0.1975): 0.5 ± 0.0206 kcal/mol
- excess molar enthalpy (303.15 K, x1 = 0.2673): 0.593 ± 0.0239 kcal/mol
- excess molar enthalpy (303.15 K, x1 = 0.3318): 0.65 ± 0.0263 kcal/mol
- excess molar enthalpy (303.15 K, x1 = 0.4217): 0.708 ± 0.0287 kcal/mol
- excess molar enthalpy (303.15 K, x1 = 0.443): 0.71 ± 0.0287 kcal/mol
- excess molar enthalpy (303.15 K, x1 = 0.4659): 0.709 ± 0.0287 kcal/mol
- excess molar enthalpy (303.15 K, x1 = 0.4906): 0.706 ± 0.0287 kcal/mol
- excess molar enthalpy (303.15 K, x1 = 0.5175): 0.701 ± 0.0287 kcal/mol
- excess molar enthalpy (303.15 K, x1 = 0.5468): 0.69 ± 0.0287 kcal/mol
- excess molar enthalpy (303.15 K, x1 = 0.5787): 0.672 ± 0.0263 kcal/mol
- excess molar enthalpy (303.15 K, x1 = 0.6138): 0.647 ± 0.0263 kcal/mol
- excess molar enthalpy (303.15 K, x1 = 0.6524): 0.616 ± 0.0239 kcal/mol
- excess molar enthalpy (303.15 K, x1 = 0.695): 0.573 ± 0.0234 kcal/mol
- excess molar enthalpy (303.15 K, x1 = 0.7425): 0.515 ± 0.021 kcal/mol
- excess molar enthalpy (303.15 K, x1 = 0.7955): 0.436 ± 0.0179 kcal/mol
- excess molar enthalpy (303.15 K, x1 = 0.8552): 0.341 ± 0.0141 kcal/mol
- excess molar enthalpy (303.15 K, x1 = 0.9228): 0.21 ± 0.00884 kcal/mol
- excess molar enthalpy (308.15 K, x1 = 0.0899): 0.307 ± 0.0127 kcal/mol
- excess molar enthalpy (308.15 K, x1 = 0.1141): 0.364 ± 0.0151 kcal/mol
- excess molar enthalpy (308.15 K, x1 = 0.1501): 0.441 ± 0.0182 kcal/mol
- excess molar enthalpy (308.15 K, x1 = 0.1975): 0.525 ± 0.0215 kcal/mol
- excess molar enthalpy (308.15 K, x1 = 0.2673): 0.627 ± 0.0263 kcal/mol
- excess molar enthalpy (308.15 K, x1 = 0.3318): 0.689 ± 0.0287 kcal/mol
- excess molar enthalpy (308.15 K, x1 = 0.4217): 0.745 ± 0.0311 kcal/mol
- excess molar enthalpy (308.15 K, x1 = 0.443): 0.742 ± 0.0311 kcal/mol
- excess molar enthalpy (308.15 K, x1 = 0.4659): 0.738 ± 0.0311 kcal/mol
- excess molar enthalpy (308.15 K, x1 = 0.4906): 0.73 ± 0.0287 kcal/mol
- excess molar enthalpy (308.15 K, x1 = 0.5175): 0.72 ± 0.0287 kcal/mol
- excess molar enthalpy (308.15 K, x1 = 0.5468): 0.705 ± 0.0287 kcal/mol
- excess molar enthalpy (308.15 K, x1 = 0.5787): 0.685 ± 0.0287 kcal/mol
- excess molar enthalpy (308.15 K, x1 = 0.6138): 0.659 ± 0.0263 kcal/mol
- excess molar enthalpy (308.15 K, x1 = 0.6524): 0.625 ± 0.0263 kcal/mol
- excess molar enthalpy (308.15 K, x1 = 0.695): 0.583 ± 0.0237 kcal/mol
- excess molar enthalpy (308.15 K, x1 = 0.7425): 0.529 ± 0.0215 kcal/mol
- excess molar enthalpy (308.15 K, x1 = 0.7955): 0.455 ± 0.0186 kcal/mol
- excess molar enthalpy (308.15 K, x1 = 0.8552): 0.355 ± 0.0146 kcal/mol
- excess molar enthalpy (308.15 K, x1 = 0.9228): 0.216 ± 0.00908 kcal/mol

Structure (SMILES): CCCCCCCCCCO [decan-1-ol] + CC#N
- excess molar enthalpy (298.15 K, x1 = 0.0436): 0.171 ± 0.00789 kcal/mol
- excess molar enthalpy (298.15 K, x1 = 0.0542): 0.206 ± 0.00908 kcal/mol
- excess molar enthalpy (298.15 K, x1 = 0.0678): 0.248 ± 0.0105 kcal/mol
- excess molar enthalpy (298.15 K, x1 = 0.079): 0.279 ± 0.0117 kcal/mol
- excess molar enthalpy (298.15 K, x1 = 0.0919): 0.313 ± 0.0131 kcal/mol
- excess molar enthalpy (298.15 K, x1 = 0.1077): 0.351 ± 0.0146 kcal/mol
- excess molar enthalpy (298.15 K, x1 = 0.127): 0.393 ± 0.0163 kcal/mol
- excess molar enthalpy (298.15 K, x1 = 0.1509): 0.44 ± 0.0179 kcal/mol
- excess molar enthalpy (298.15 K, x1 = 0.181): 0.491 ± 0.0201 kcal/mol
- excess molar enthalpy (298.15 K, x1 = 0.2197): 0.546 ± 0.0222 kcal/mol
- excess molar enthalpy (298.15 K, x1 = 0.271): 0.607 ± 0.0239 kcal/mol
- excess molar enthalpy (298.15 K, x1 = 0.3415): 0.671 ± 0.0263 kcal/mol
- excess molar enthalpy (298.15 K, x1 = 0.3857): 0.699 ± 0.0287 kcal/mol
- excess molar enthalpy (298.15 K, x1 = 0.4394): 0.72 ± 0.0287 kcal/mol
- excess molar enthalpy (298.15 K, x1 = 0.5058): 0.724 ± 0.0287 kcal/mol
- excess molar enthalpy (298.15 K, x1 = 0.5895): 0.694 ± 0.0287 kcal/mol
- excess molar enthalpy (298.15 K, x1 = 0.6985): 0.596 ± 0.0239 kcal/mol
- excess molar enthalpy (298.15 K, x1 = 0.78): 0.482 ± 0.0198 kcal/mol
- excess molar enthalpy (298.15 K, x1 = 0.8433): 0.372 ± 0.0153 kcal/mol
- excess molar enthalpy (298.15 K, x1 = 0.9159): 0.222 ± 0.00932 kcal/mol
- excess molar enthalpy (303.15 K, x1 = 0.0586): 0.245 ± 0.0103 kcal/mol
- excess molar enthalpy (303.15 K, x1 = 0.0678): 0.274 ± 0.0115 kcal/mol
- excess molar enthalpy (303.15 K, x1 = 0.079): 0.306 ± 0.0129 kcal/mol
- excess molar enthalpy (303.15 K, x1 = 0.0919): 0.342 ± 0.0141 kcal/mol
- excess molar enthalpy (303.15 K, x1 = 0.1077): 0.38 ± 0.0155 kcal/mol
- excess molar enthalpy (303.15 K, x1 = 0.127): 0.419 ± 0.0172 kcal/mol
- excess molar enthalpy (303.15 K, x1 = 0.1509): 0.462 ± 0.0189 kcal/mol
- excess molar enthalpy (303.15 K, x1 = 0.181): 0.506 ± 0.0206 kcal/mol
- excess molar enthalpy (303.15 K, x1 = 0.2197): 0.559 ± 0.0227 kcal/mol
- excess molar enthalpy (303.15 K, x1 = 0.271): 0.622 ± 0.0263 kcal/mol
- excess molar enthalpy (303.15 K, x1 = 0.3415): 0.689 ± 0.0287 kcal/mol
- excess molar enthalpy (303.15 K, x1 = 0.3857): 0.713 ± 0.0287 kcal/mol
- excess molar enthalpy (303.15 K, x1 = 0.4394): 0.732 ± 0.0287 kcal/mol
- excess molar enthalpy (303.15 K, x1 = 0.5058): 0.736 ± 0.0287 kcal/mol
- excess molar enthalpy (303.15 K, x1 = 0.5895): 0.711 ± 0.0287 kcal/mol
- excess molar enthalpy (303.15 K, x1 = 0.6985): 0.628 ± 0.0263 kcal/mol
- excess molar enthalpy (303.15 K, x1 = 0.78): 0.512 ± 0.0208 kcal/mol
- excess molar enthalpy (303.15 K, x1 = 0.8433): 0.396 ± 0.0163 kcal/mol
- excess molar enthalpy (303.15 K, x1 = 0.9159): 0.243 ± 0.01 kcal/mol
- excess molar enthalpy (308.15 K, x1 = 0.0748): 0.279 ± 0.0117 kcal/mol
- excess molar enthalpy (308.15 K, x1 = 0.1008): 0.347 ± 0.0143 kcal/mol
- excess molar enthalpy (308.15 K, x1 = 0.1409): 0.437 ± 0.0179 kcal/mol
- excess molar enthalpy (308.15 K, x1 = 0.1866): 0.524 ± 0.0215 kcal/mol
- excess molar enthalpy (308.15 K, x1 = 0.2546): 0.637 ± 0.0263 kcal/mol
- excess molar enthalpy (308.15 K, x1 = 0.3186): 0.714 ± 0.0287 kcal/mol
- excess molar enthalpy (308.15 K, x1 = 0.4096): 0.794 ± 0.0335 kcal/mol
- excess molar enthalpy (308.15 K, x1 = 0.4314): 0.796 ± 0.0335 kcal/mol
- excess molar enthalpy (308.15 K, x1 = 0.455): 0.794 ± 0.0335 kcal/mol
- excess molar enthalpy (308.15 K, x1 = 0.4807): 0.788 ± 0.0311 kcal/mol
- excess molar enthalpy (308.15 K, x1 = 0.5088): 0.78 ± 0.0311 kcal/mol
- excess molar enthalpy (308.15 K, x1 = 0.5395): 0.767 ± 0.0311 kcal/mol
- excess molar enthalpy (308.15 K, x1 = 0.5734): 0.75 ± 0.0311 kcal/mol
- excess molar enthalpy (308.15 K, x1 = 0.6109): 0.724 ± 0.0287 kcal/mol
- excess molar enthalpy (308.15 K, x1 = 0.6525): 0.686 ± 0.0287 kcal/mol
- excess molar enthalpy (308.15 K, x1 = 0.6991): 0.636 ± 0.0263 kcal/mol
- excess molar enthalpy (308.15 K, x1 = 0.7515): 0.567 ± 0.0232 kcal/mol
- excess molar enthalpy (308.15 K, x1 = 0.8108): 0.471 ± 0.0194 kcal/mol
- excess molar enthalpy (308.15 K, x1 = 0.8785): 0.336 ± 0.0139 kcal/mol
- excess molar enthalpy (308.15 K, x1 = 0.9566): 0.142 ± 0.00621 kcal/mol
